EP1138666B1, “A preparation method for 4-(P-methoxyphenyl)-2-amino-butane and an insecticidal composition comprising it” (Council of Scientific and Industrial Research, priority 2000, dated 2001)

Legend:
[1] = system: 4th instar larvae of Spilarctia Obliqua; experiment: feeding deterrency (antifeedant) bioassay, diet-mix method, fecal pellet count; type: in vivo; details: for % feeding deterrency: artificial diet, after 24 hours; for antifeedant activity: result in words, bioassay studies
Protocol: (§1) The compound having formula (1) was evaluated as feeding deterrent and growth inhibitor against 4th in star larvae of spilarctia obliqua (Bihar hairy caterpillar). This insect attacks more than twenty cash crops like urd, moong, arhar, mint and coleus etc. Several synthetic insecticides like quinalphos, Phosphamidon and synthetic pyrethroids are commercially used to manage this insect pest. But, the insect is developing resistance towards some of these insecticides. Therefore, it has now become imperative to search for new ecologically safe, environmentally sound and non-toxic chemicals to manage this pest.
(§2) With compound having formula (1) insect feeding deterrency and growth inhibition was tested by diet-mix method. In this method, 4-(p-methoxyphenyl)-2-aminobutane,the compound having formula (1) was dissolved in acetone to make various concentrations ranging from 1000 to 5000 ppm. Test solution was mixed in the artificial diet of the insect so that each gram of diet contained 60-300 µg of the compound (1). 4th in star larva (newly molted) starved four hours, was weighed and released on treated artificial diet in thirty replications. In control, only solvent acetone was mixed and azadirachtin at 1000 ppm concentration was taken as standard for feeding bioassay. After 24 hours, number of fecal pellets produced were counted, and the data were analyzed for % feeding deterrency. Some experiments were continued for next 24 hours and weights of the larva were taken daily. After 3 days, experiment was discontinued and weight gain or loss was analyzed for % growth inhibition.

[2] = sensitivity to light (UV and sunlight); type: physicochemical
[3] = system: 4th instar larvae of Spilarctia Obliqua; experiment: growth inhibition assay, diet-mix method, larval weight gain or loss; type: in vivo; details: for growth inhibition: result in words, bioassay studies
Protocol: as §1, §2
Diflubenzuron at 5 ppm was taken as a standard in case of growth inhibitory assay. The test result of compound having formula (1) in terms of its feeding deterrency and growth inhibition as compared to standards azadirachtin and diflubenzuron are given in table 1.

[4] = Spilarctia obliqua, 72 h, read-out: % growth inhibition

For `C/C=C(\C)C(=O)O[C@H]1C[C@@H](OC(C)=O)[C@@]2(C(=O)OC)CO[C@H]3[C@@H](O)[C@@](C)([C@]45O[C@@]4(C)[C@H]4C[C@@H]5O[C@@H]5OC=C[C@@]54O)[C@H]4[C@]1(CO[C@]4(O)C(=O)OC)[C@@H]32` [Azadirachtin, reference compound], the “% feeding deterrency” value ([1]; 1000 ppm) was 100.0% and the sensitivity to light [2] was “photosensitive”.

With `COc1ccc(CCC(C)N)cc1` (stereo not drawn) [Compound 1, 4-(p-methoxyphenyl)-2-amino-butane] the “% feeding deterrency” value ([1]; 1000 ppm) was 32.0%, the “% feeding deterrency” value ([1]; 2000 ppm) was 40.0% and the “% feeding deterrency” value ([1]; 3000 ppm) was 64.0%. The “% feeding deterrency” value ([1]; 4000 ppm) was 82.0%, the “% feeding deterrency” value ([1]; 5000 ppm) was 100.0% and the antifeedant activity [1] was “significant activity”. For the same molecule, the inhibition at 1000 ppm [3, 4] was 48%, the inhibition at 2000 ppm [3, 4] was 59% and the inhibition at 3000 ppm [3, 4] was 72%. The inhibition at 4000 ppm [3, 4] was 100%, the inhibition at 5000 ppm [3, 4] was 128% and the growth inhibition [3] was “significant activity”. The sensitivity to light [2] was “not sensitive to light”.

Molecule `O=C(NC(=O)c1c(F)cccc1F)Nc1ccc(Cl)cc1` [Diflubenzuron, reference compound] has an inhibition at 5 ppm ([3]; Spilarctia obliqua, 72 h, 5 ppm, artificial diet, after 3 days) of 100%.

In the case of `CC(O)CCc1ccc(O)cc1` (stereo not drawn) [compound (2), 4-(p-hydroxyphenyl)-butan-2-ol], the antifeedant activity [1] is reported as “not found to be active” and the growth inhibition [3] is reported as “not found to be active”.
